{"source": "patent US20240165055A1", "about": "“TREATMENT” (Verona Pharma PLC, priority 2022, published 2024)", "tested_on": "patients with moderate to severe COPD", "experiment": "Multi-centre, randomized, double-blind, placebo-controlled clinical study of nebulised ensifentrine in COPD (spirometry, FEV1)", "format": "in vivo", "details": "3 mg BID by nebuliser", "method": "A clinical study was conducted to determine the efficacy of ensifentrine in treating COPD compared with placebo. Ensifentrine was administered by nebuliser at a dose of 3 mg twice daily (BID) for 24 weeks. The study was a multi-centre, randomized, double-blind, parallel-group, placebo-controlled trial with around 800 patients and 5:3 randomization.\nThe study population included patients aged 40-80 years with moderate to severe COPD (FEV130%-70% p.n., FEVi/forced vital capacity [FVC] ratio <0.7, with mMRC ≥2). The randomization stratified (a) the use of stable background maintenance LAMA or LABA therapy use (approx. 50%. yes or no) and (b) cigarette smoking (current or former). Inhaled corticosteroid (ICS) maintenance therapy was permitted in up to 20% of patients under certain provisions.\nThe primary endpoint of the study was change from baseline in average FEV1 area under the curve (AUC)0-12h post-dose at week 12. Secondary endpoints of the study included: peak FEV1 over 4 hours post-dose at Week 12; morning trough FEV1 at Week 12; and other endpoints including moderate/severe COPD exacerbations frequency over 24 Weeks.\nBaseline FEV1 is the mean of the two measurements taken before study medication on the day of first dosing, i.e. ≤40 minutes and just prior to dosing, pre-dose on day 1.\nAverage FEV1 AUCO-12h is defined as area under the curve over 12 hours of the FEV1, divided by 12 hours.\nMorning trough FEV1 at Week 12 is defined as the FEVi assessed at 11.5 to 12 hours following the prior evening dose.\nThe investigational product and placebo were provided in 2.5 mL unit dose format in an ampule and administered via a nebuliser."}
{"smiles": "COc1cc2c(cc1OC)-c1c/c(=N\\c3c(C)cc(C)cc3C)n(CCNC(N)=O)c(=O)n1CC2", "note": "[Ensifentrine]", "values": [{"measurement": "Morning Trough FEV1 Week 12: CFB Least Squares Mean, mL (95% CI)", "setting": "Week 12, FEV1 at 11.5 to 12 hours following the prior evening dose", "value": "6.3 (−12.3, 24.9) mL"}, {"measurement": "Morning Trough FEV1 Week 12: Placebo-corrected CFB LS Mean Diff., mL (95% CI)", "setting": "Week 12, versus placebo", "value": "48.9 (18.3, 79.5) mL"}, {"measurement": "Improvement in lung function in all subgroups (average FEV1 (AUC)0-12h at Week 12), result in words", "setting": "all subgroups", "value": "All subgroups showed improvement in lung function with ensifentrine that was statistically significant"}, {"measurement": "Morning trough FEV1 at week 12, result in words", "setting": "week 12", "value": "statistically significant effect"}]}
